Drawing on DBAASP, this text covers MIC for five molecules.

In brackets after ≈: the same amount, converted by molar mass.

Among the test systems are Staphylococcus aureus; Pseudomonas aeruginosa; Escherichia coli JM109; Candida albicans; Escherichia coli O157.
Holding throughout (assay): ≥ marks a high value that may be exact or a test limit, other limits are often not marked, values filed in µg/mL are converted to µM
The test system of assay [1] is Staphylococcus aureus ATCC 6538P.
For assay [2], the system named is Micrococcus luteus ATCC 9341.
In assay [3] the test system is Staphylococcus aureus ATCC 6538.
The test system of assay [4] is Corynebacterium diphtheriae ATCC 8024.
In assay [5] the test system is Bacillus subtilis ATCC 6633.
In assay [6] the test system is Staphylococcus epidermidis ATCC 12228.
The test system of assay [7] is Shigella flexneri ATCC 203.
The test system of assay [8] is Candida albicans ATCC 36232.
Assay [9] deals with Pseudomonas aeruginosa ATCC 9027.
The subject of assay [10] is Escherichia coli ATCC 2592.
Assay [11] deals with Streptococcus gordonii Challis DL1.
The subject of assay [12] is Streptococcus sanguinis NY101.
In assay [13] the test system is Pseudomonas aeruginosa PAK.
Assay [14] has as its system Streptococcus mutans UA159.
The subject of assay [15] is Streptococcus mitis ATCC 903.
For assay [16], the system named is Escherichia coli NIHJ JC-2.
Assay [17] has as its system Staphylococcus aureus FDA 209P JC-1.
The subject of assay [18] is Streptococcus pyogenes ATCC 19615.
The subject of assay [19] is Escherichia coli ATCC 35218.
For assay [20], the system named is Enterococcus faecalis ATCC 29212.
In assay [21] the test system is Bacillus cereus ATCC 11778.
In assay [22] the test system is Escherichia coli ATCC 25922.
Assay [23] has as its system Salmonella enterica subsp. arizonae ATCC 13314.

Consider `CC[C@H](C)[C@H](NC(=O)[C@H](C)NC(=O)[C@H](CC(C)C)NC(=O)[C@H](Cc1c[nH]c2ccccc12)NC(=O)[C@H](CC(C)C)NC(=O)[C@H](C)N)C(=O)N[C@@H](CCCN=C(N)N)C(=O)N[C@@H](CCCN=C(N)N)C(=O)N[C@@H](CCCN=C(N)N)C(N)=O` [ALWLAIRRR], for which the MIC in the assay with Staphylococcus aureus turned out to be 27.7 µM (≈ 32 µg/mL); in [1], 1.73 µM (≈ 2 µg/mL); against Pseudomonas aeruginosa it was 3.46 µM (≈ 4 µg/mL); in the assay with Escherichia coli JM109, 2.6 µM (≈ 3 µg/mL).
In the case of `CC(C)[C@H](NC(=O)[C@H](CS)NC(=O)[C@@H](NC(=O)[C@H](CCCN=C(N)N)NC(=O)[C@H](CCCCN)NC(=O)CNC(=O)[C@H](CC(N)=O)NC(=O)[C@@H](N)CS)C(C)C)C(=O)N[C@@H](CS)C(=O)N[C@@H](CCCN=C(N)N)C(N)=O` [CNGKRVCVCR], the MIC was more than 87.9 µM in the assay with Staphylococcus aureus; 11 µM (≈ 12.5 µg/mL) in assay [2]; 26.4 µM (≈ 30 µg/mL) in [3]; 6.59 µM (≈ 7.49 µg/mL) in [4]; 13.2 µM (≈ 15 µg/mL) in [5]; 13.2 µM (≈ 15 µg/mL) in [6]. Besides, the MIC in assay [7] came to 26.4 µM (≈ 30 µg/mL); in assay [8], 13.2 µM (≈ 15 µg/mL); in [9], 44 µM (≈ 50 µg/mL); in assay [10] it was 6.59 µM (≈ 7.49 µg/mL).
For `CC[C@H](C)[C@H](NC(=O)[C@H](Cc1ccccc1)NC(=O)[C@H](Cc1cnc[nH]1)NC(=O)[C@H](CCCCN)NC(=O)[C@@H](NC(=O)[C@@H](N)Cc1ccccc1)[C@@H](C)CC)C(=O)N[C@@H](Cc1cnc[nH]1)C(=O)N[C@@H](CCCN=C(N)N)C(=O)N[C@@H](Cc1ccccc1)C(=O)N[C@@H](CO)C(=O)N[C@@H](C)C(=O)N[C@H](C(=O)N[C@@H](CCCN=C(N)N)C(=O)N[C@@H](Cc1c[nH]c2ccccc12)C(=O)N[C@@H](CCCN=C(N)N)C(=O)N[C@@H](Cc1c[nH]c2ccccc12)C(=O)N[C@@H](CCCN=C(N)N)C(=O)N[C@@H](Cc1c[nH]c2ccccc12)C(=O)N[C@@H](Cc1ccccc1)C(N)=O)[C@@H](C)O` [FIKHFIHRFSATRWRWRWF], the MIC in [11] is 11.9 µM (≈ 32 µg/mL); in [12], 11.9 µM (≈ 32 µg/mL); against Staphylococcus aureus, 46.7 µM (≈ 125 µg/mL); in [13], 23.3 µM (≈ 62.5 µg/mL); in assay [14], 2.99 µM (≈ 8 µg/mL); in assay [15], 5.97 µM (≈ 16 µg/mL).
In the case of `CC(C)C[C@H](NC(=O)CN)C(=O)N[C@@H](CC(C)C)C(=O)N[C@@H](CC(=O)O)C(=O)N[C@@H](CO)C(=O)N[C@@H](CC(C)C)C(=O)N[C@@H](CCCCN)C(=O)NCC(=O)N[C@@H](Cc1ccccc1)C(=O)N[C@@H](C)C(=O)N[C@@H](C)C(=O)N[C@H](C(=O)N[C@@H](C)C(=O)NCC(=O)N[C@@H](CCCCN)C(=O)NCC(=O)N[C@H](C(=O)N[C@@H](CC(C)C)C(=O)N[C@@H](CCC(N)=O)C(=O)N[C@@H](CO)C(=O)N[C@@H](CC(C)C)C(=O)N[C@@H](CC(C)C)C(=O)N[C@@H](CO)C(=O)N[C@H](C(=O)N[C@@H](C)C(=O)N[C@@H](CO)C(=O)N[C@H]1CSSC[C@@H](C(=O)O)NC(=O)[C@H]([C@@H](C)O)NC(=O)[C@H](CCCCN)NC(=O)[C@H](C)NC(=O)[C@H](CC(C)C)NC(=O)[C@H](CCCCN)NC1=O)[C@@H](C)O)C(C)C)[C@@H](C)O` [GLLDSLKGFAATAGKGVLQSLLSTASCKLAKTC], the MIC in assay [16] is 1.23 µM (≈ 4 µg/mL); in assay [17], 2.46 µM (≈ 8 µg/mL); with Candida albicans, more than 40 µM; in [5], 0.615 µM (≈ 2 µg/mL).
In the case of `CC(C)C[C@H](NC(=O)[C@H](CCC(N)=O)NC(=O)[C@H](Cc1ccc(O)cc1)NC(=O)[C@H](CCCN=C(N)N)NC(=O)CNC(=O)[C@H](C)NC(=O)[C@H](C)NC(=O)[C@@H](NC(=O)[C@H](CO)NC(=O)[C@H](Cc1ccc(O)cc1)NC(=O)[C@@H](NC(=O)[C@H](CCCCN)NC(=O)[C@H](Cc1ccc(O)cc1)NC(=O)[C@H](CCCN=C(N)N)NC(=O)[C@@H]1CCCN1C(=O)[C@H](CC(C)C)NC(=O)[C@H](Cc1ccc(O)cc1)NC(=O)[C@@H](NC(=O)[C@H](CCCCN)NC(=O)[C@H](CC(C)C)NC(=O)[C@H](CCCN=C(N)N)NC(=O)[C@@H]1CCCN1)C(C)C)C(C)C)[C@@H](C)O)C(=O)N[C@@H](CC(C)C)C(=O)N[C@@H](CO)C(=O)N[C@@H](CCCN=C(N)N)C(=O)N[C@@H](Cc1ccc(O)cc1)C(=O)N[C@@H](Cc1c[nH]c2ccccc12)C(N)=O` [PRLKVYLPRYKVYSTAAGRYQLLSRYW], the MIC was not below 38 µM in [18]; not below 150 µM in [19]; 150 µM (≈ 502 µg/mL) in assay [20]; not below 150 µM in the assay with Escherichia coli O157; 19 µM (≈ 63.6 µg/mL) in assay [2]; not below 75 µM in assay [21]. The MIC is 150 µM (≈ 502 µg/mL) in assay [22], not below 150 µM in assay [23], 150 µM (≈ 502 µg/mL) in [6] and more than 150 µM in assay [9].
